Experimental data published in patent US8465756B2, “Immunogenic peptides of tumor associated antigen L6 and uses thereof in cancer therapy” (National Health Research Institutes, priority 2009, dated 2013).

What was measured:
[1] = test system: human HLA-A24 and β2-microglobulin; experiment: MHC-peptide complex formation assay (ELISA), HLA-A24; format: binding; details: MHC-peptide formation rate versus positive control peptide
[2] = test system: T cells (spleen cells from HLA-A24 transgenic mice); experiment: IFN-γ ELISpot on spleen cells of peptide-immunized HLA-A24 transgenic mice; format: in vivo, HLA-A24 transgenic mouse; details: HLA-A24 transgenic mice immunized as in Example 2; FIG. 2
Text: FIG. 2 is a chart showing induction of interferon γ in spleen cells from HLA-A24 transgenic mice immunized with a number of immunogenic peptides from TAL6: peptides 17 (SEQ ID NO:14), 18 (SEQ ID NO:15), 20 (SEQ ID NO:16), 21 (SEQ ID NO:17), 22 (SEQ ID NO:18), 23 (SEQ ID NO:19), 24 (SEQ ID NO:20), 26 (SEQ ID NO:21), 27 (SEQ ID NO:22), 29 (SEQ ID NO:41), and 30 (SEQ ID NO:23). “N” refers to a negative control and “P” refers to a positive control.
(§1) One mg of each of the peptides (test peptides) that were identified as HLA-A2-restricted T-cell epitopes in Examples 1 above and 1 mg of PADRE peptide ([…]; SEQ ID NO:25), both in 0.5 ml PBS, were mixed together with 0.5 mL incomplete Freund's adjuvant (IFA). An EBV-derived HLA-A2-restricted epitope, i.e., […](GLC; SEQ ID NO:35), was used as a positive control and an EBV-derived HAL-A24-restricted epitope, i.e., TYGPVFMCL (TYG; SEQ ID NO:37), was used as negative control. 100 μl of the mixture (containing 50 μg of a test peptide) was injected s.c. into the tail base of a HLA-A2 transgenic mouse, once every 7 days for two times. Spleen cells were harvested from the treated mice 7 days after the second injection and cultured in the presence of 10 μg/mL of the test peptide. The supernatant of the cell culture was subjected to an ELISpot assy to examine the amount of IFN-γ contained therein, which correlates to the activity of the test peptide for stimulating T cells.
Each of the peptides (test peptides) that were identified as HLA-A24-restricted T-cell epitopes in Examples 3 above were used to immunize HAL-A24 transgenic mice, following the procedures described in Example 2 above. EBV peptides GLC and TYG were used as a negative control and a positive control, respectively.

[3] = test system: tumor cells EL4/TAL6/HLA-A2; experiment: Tumor growth after peptide immunization and transplantation of EL4/TAL6/HLA-A2 tumor cells; format: in vivo, mice
Experimental: FIG. 4 is a chart showing inhibition of tumor growth in mice immunized by immunopeptides derived from TAL6. Tumor volume was calculated using the formula: tumor volume=length×width×width/2. Panel (a): HLA-A2 transgenic mice. Panel (b): Wild-type mice.
Peptide 2 or Peptide 5 listed in Table 1 above, mixed with IFA, was administered subcutaneously to HLA-A2 transgenic mice (50 μg/mouse) or wild-type C57BL/6 mice twice in two weeks. Twenty-one days later, each of the immunized mice was transplanted subcutaneously with 2×10^5 of tumor cells EL4/TAL6/HLA-A2 (EL4 cells stably expressing both TAL6 and HLA-A2) to induce tumor growth in the immunized mice. Sizes of the tumors in the treated mice were monitored every 2-3 days. The tumor volume was calculated using the formula: tumor volume=length×width×width/2.

[4] = test system: T cells (spleen cells from HLA-A2 transgenic mice); experiment: IFN-γ ELISpot on spleen cells of peptide-immunized HLA-A2 transgenic mice; format: in vivo, HLA-A2 transgenic mouse; details: 50 μg peptide with PADRE peptide and IFA s.c. twice; spleen cells cultured with 10 μg/mL test peptide; FIG. 1
Experimental: FIG. 1 is a chart showing induction of interferon γ in spleen cells from HLA-A2 transgenic mice immunized with a number of immunogenic peptides from TAL6: peptides 1 (SEQ ID NO:1), 2 (SEQ ID NO:2), 5 (SEQ ID NO:4), 6 (SEQ ID NO:5), 7 (SEQ ID NO:6), 8 (SEQ ID NO:7), 9 (SEQ ID NO:8), 11 (SEQ ID NO: 10), and 14 (SEQ ID NO:12). “NP” refers to absence of any peptide.
as §1

[5] = test system: splenocytes from pEK/TAL6-immunized mice; experiment: IFN-γ ELISpot on splenocytes of pEK/TAL6 DNA immunized mice stimulated with TAL6 peptides; format: in vivo; details: splenocytes from pEK/TAL6-immunized mice stimulated with the peptide; FIG. 3
[6] = HLA-A2 transgenic mice, 50 μg/mouse peptide with IFA s.c. twice, FIG. 4 panel (a)

Relative binding (%) to HLA-A24 [1]	Sequence	other results
22.24%	EWNVSLFSIL (Synthetic HLA-A24 restricted CTL epitope (157-166 aa of TAL6)) [Peptide 31, TAL6 position 157-166]	–
72.36%	FFSGIVGGGL (Synthetic HLA-A24 restricted CTL epitope (49-57 aa of TAL6)) [Peptide 23, TAL6 position 49-57]	–
25.29%	GGIEFILCL (Synthetic HLA-A24 restricted CTL epitope (170-178 aa of TAL6)) [Peptide 32, TAL6 position 170-178]	–
14.85%	GGIEFILCLI (Synthetic HLA-A24 restricted CTL epitope (170-179 aa of TAL6)) [Peptide 33, TAL6 position 170-179]	–
117.78%	GYCVIVAAL (Synthetic HLA-A24 restricted CTL epitope (105-113 aa of TAL6)) [Peptide 24, TAL6 position 105-113]	–
49.24%	TFASTEGQY (Synthetic HLA-A24 restricted CTL epitope (131-139 aa of TAL6)) [Peptide 25, TAL6 position 131-139]	–
115.71%	TFASTEGQYL (Synthetic HLA-A24 restricted CTL epitope (131-140 aa of TAL6)) [Peptide 26, TAL6 position 131-140]	–

More lines, now with the values behind:

Sequence	Relative binding (%) to HLA-A24 [1]	other results
CYGKCARCI (Synthetic HLA-A24 restricted CTL epitope (2-10 aa of TAL6)) [Peptide 17, TAL6 position 2-10]	125.73%	–
EWNVSLFSI (Synthetic HLA-A24 restricted CTL epitope (157-165 aa of TAL6)) [Peptide 30, TAL6 position 157-165]	74.01%	IFN-γ secretion of T cells [2]: induced IFN-γ secretion of T cells
HIVEWNVSLF (Synthetic HLA-A24 restricted CTL epitope (154-163 aa of TAL6)) [Peptide 28, TAL6 position 154-163]	28.03%	–
HSLVGLALL (Synthetic HLA-A24 restricted CTL epitope (12-20 aa of TAL6)) [Peptide 18, TAL6 position 12-20]	61.73%	–
IAANILLYF (Synthetic HLA-A24 restricted CTL epitope (22-30 aa of TAL6)) [Peptide 19, TAL6 position 22-30]	0.00%	–
IVEWNVSLF (Synthetic HLA-A24 restricted CTL epitope (155-163 aa of TAL6)) [Peptide 29, TAL6 position 155-163]	41.01%	IFN-γ secretion of T cells [2]: induced IFN-γ secretion of T cells
KYASENHLS (Synthetic HLA-A24 restricted CTL epitope (36-44 aa of TAL6)) [Peptide 21, TAL6 position 36-44]	64.59%	–
LLMLLPAFV (Synthetic HLA-A2 restricted CTL epitope (58-66 aa of TAL6)) [Peptide 5, TAL6 position 58-66]	–	Inhibition of tumor growth (tumor volume) [3, 6]: significantly inhibited tumor growth; Inhibition of tumor growth (tumor volume) ([3]; wild-type C57BL/6 mice, peptide with IFA s.c. twice, FIG. 4 panel (b)): not in the wild-type mice; IFN-γ secretion of T cells [4]: induced IFN-γ secretion of T cells; IFN-γ-secreting cells activated by test TAL6 peptide [5]: responsive
LYFPNGETKY (Synthetic HLA-A24 restricted CTL epitope (28-36 aa of TAL6)) [Peptide 20, TAL6 position 28-36]	84.95%	–
QYLLDTSTW (Synthetic HLA-A24 restricted CTL epitope (138-147 aa of TAL6)) [Peptide 27, TAL6 position 138-147]	110.75%	IFN-γ secretion of T cells [2]: induced IFN-γ secretion of T cells
RFVWFFSGI (Synthetic HLA-A24 restricted CTL epitope (45-53 aa of TAL6)) [Peptide 22, TAL6 position 45-53]	91.88%	–
SLVGLALLC (Synthetic HLA-A2 restricted CTL epitope (13-21 aa of TAL6)) [Peptide 2, TAL6 position 13-21]	–	Inhibition of tumor growth (tumor volume) [3, 6]: reduced tumor growth in the HLA-A2 transgenic mice, albeit in a lower level; IFN-γ secretion of T cells [4]: induced IFN-γ secretion of T cells; IFN-γ-secreting cells activated by test TAL6 peptide [5]: responsive
